ChEMBL document CHEMBL1137940, “Discovery of thiophene-2-carboxylic acids as potent inhibitors of HCV NS5B polymerase and HCV subgenomic RNA replication. Part 2: tertiary amides” (Bioorg Med Chem Lett, 2004)

Experiments:
Genome polyprotein = Genome polyprotein (Hepatitis C virus genotype 1a (isolate 1) (HCV), UniProt P26664); assay: In vitro inhibition of Hepatitis C polymerase.
Huh-7 [1] = assay: Tested for cytotoxic effect to Huh-7 cells containing HCV RNA subgenomic replicons; assay type: functional; settings: Homo sapiens
Huh-7 [2] = assay: Tested for inhibition of replication of HCV RNA subgenomic replicons in Huh-7 cells by replicon assay; assay type: functional, cell-based, Homo sapiens
Huh-7 [3] = assay: Tested for inhibition of replication of HCV RNA subgenomic replicons in Huh-7 cells by real time PCR; assay type: functional, cell-based; settings: Homo sapiens

Chain of Genome polyprotein (P26664 2421-3011 limits assumed): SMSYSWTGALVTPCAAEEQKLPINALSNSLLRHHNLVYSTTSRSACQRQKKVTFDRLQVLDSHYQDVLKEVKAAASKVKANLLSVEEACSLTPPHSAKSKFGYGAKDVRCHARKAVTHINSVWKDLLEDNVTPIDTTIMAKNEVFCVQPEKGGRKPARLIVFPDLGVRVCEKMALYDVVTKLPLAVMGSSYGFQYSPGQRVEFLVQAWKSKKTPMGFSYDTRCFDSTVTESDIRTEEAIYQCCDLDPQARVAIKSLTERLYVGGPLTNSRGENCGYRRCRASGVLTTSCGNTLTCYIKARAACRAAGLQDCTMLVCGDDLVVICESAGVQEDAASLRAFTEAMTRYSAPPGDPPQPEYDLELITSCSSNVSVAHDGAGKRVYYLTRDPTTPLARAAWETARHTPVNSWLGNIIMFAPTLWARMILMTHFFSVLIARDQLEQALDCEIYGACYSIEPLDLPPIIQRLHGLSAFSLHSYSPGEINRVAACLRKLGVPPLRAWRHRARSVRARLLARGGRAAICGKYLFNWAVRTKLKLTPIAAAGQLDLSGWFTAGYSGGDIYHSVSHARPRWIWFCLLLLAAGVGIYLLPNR

IC50 (Genome polyprotein)	IC50 (Huh-7 [2]; Homo sapiens, Huh-7)	SMILES	CC50 (Huh-7 [1])	IC50 (Huh-7 [2]; huh-7)	IC50 (Huh-7 [3])
1.4 µM	16 µM	Cc1ccc(C(=O)N(C)c2cc(-c3ccccc3)sc2C(=O)O)c(C)c1	160 µM	–	–
–	> 100 µM	Cc1ccc(C(=O)Nc2cc(-c3ccccc3)sc2C(=O)O)cc1	118 µM	–	–
> 50 µM	–	Cc1ccc(C(=O)N(C)c2cc(-c3ccccc3)sc2C(=O)O)cc1C	–	–	–
1.2 µM	19 µM	CN(C(=O)c1ccc(Cl)cc1)c1cc(-c2ccccc2)sc1C(=O)O	88 µM	–	–
34 µM	> 50 µM	CN(C(=O)c1ccc(C(F)(F)F)cc1)c1cc(-c2ccccc2)sc1C(=O)O	–	–	–
> 50 µM	> 100 µM	Cc1cccc(C(=O)N(C)c2cc(-c3ccccc3)sc2C(=O)O)c1	> 200 µM	–	–
> 50 µM	> 100 µM	CCc1ccc(C(=O)N(C)c2cc(-c3ccccc3)sc2C(=O)O)cc1	–	–	–
–	5 µM	Cc1ccc(S(=O)(=O)Nc2cc(-c3ccccc3)sc2C(=O)O)c(C)c1	57 µM	–	–
21 µM	–	Cc1ccccc1C(=O)N(C)c1cc(-c2ccccc2)sc1C(=O)O	–	–	–
1.2 µM	8.9 µM	CC(C)N(C(=O)c1ccc(Cl)cc1Cl)c1cc(-c2ccccc2)sc1C(=O)O	62 µM	–	–
5 µM	35 µM	Cc1ccc(S(=O)(=O)N(C)c2cc(-c3ccccc3)sc2C(=O)O)c(C)c1	115 µM	–	–
2 µM	22 µM	Cc1ccc(C(=O)N(C)c2cc(-c3ccccc3)sc2C(=O)O)cc1	> 200 µM	–	–
9 µM	15 µM	CC(C)N(C(=O)C1CCCCC1)c1cc(-c2ccccc2)sc1C(=O)O	69 µM	–	–
3 µM	5 µM	Cc1ccc(C(=O)N(c2cc(-c3ccccc3)sc2C(=O)O)C(C)C)cc1	> 200 µM	–	–
> 32 µM	–	CN(C(=O)c1ccccc1)c1cc(-c2ccccc2)sc1C(=O)O	–	–	–
2 µM	12 µM	CCN(C(=O)c1ccc(C)cc1)c1cc(-c2ccccc2)sc1C(=O)O	100 µM	–	–

SMILES	IC50 (Genome polyprotein)	IC50 (Huh-7 [2]; Homo sapiens, Huh-7)	CC50 (Huh-7 [1])	IC50 (Huh-7 [2]; huh-7)	IC50 (Huh-7 [3])
CC1CCC(C(=O)N(c2cc(-c3ccccc3)sc2C(=O)O)C(C)C)CC1 (stereo in doubt; 16)	1.5 µM	–	123 µM	0.6 µM	0.3 µM
CC1CCC(C(=O)N(c2cc(-c3ccccc3)sc2C(=O)O)C(C)C)CC1 (stereo in doubt; 17)	24 µM	–	–	> 50 µM	–
